This passage reports EC50 and CC50 results from patent publication US20250163051A1, “PYRIMIDO AROMATIC RING COMPOUND AND USE THEREOF IN DRUG” (SUNSHINE LAKE PHARMA CO., LTD., priority 2022, published 2025).

Bounds are passed on as bounds.

One data set deals with T1, hTLR7 (Homo sapiens, UniProt Q9NYK1).
T1 construct: expressed in transfected cells; host or cells: HEK-Blue hTLR7 cells
T1 sequence (Q9NYK1 27-1049): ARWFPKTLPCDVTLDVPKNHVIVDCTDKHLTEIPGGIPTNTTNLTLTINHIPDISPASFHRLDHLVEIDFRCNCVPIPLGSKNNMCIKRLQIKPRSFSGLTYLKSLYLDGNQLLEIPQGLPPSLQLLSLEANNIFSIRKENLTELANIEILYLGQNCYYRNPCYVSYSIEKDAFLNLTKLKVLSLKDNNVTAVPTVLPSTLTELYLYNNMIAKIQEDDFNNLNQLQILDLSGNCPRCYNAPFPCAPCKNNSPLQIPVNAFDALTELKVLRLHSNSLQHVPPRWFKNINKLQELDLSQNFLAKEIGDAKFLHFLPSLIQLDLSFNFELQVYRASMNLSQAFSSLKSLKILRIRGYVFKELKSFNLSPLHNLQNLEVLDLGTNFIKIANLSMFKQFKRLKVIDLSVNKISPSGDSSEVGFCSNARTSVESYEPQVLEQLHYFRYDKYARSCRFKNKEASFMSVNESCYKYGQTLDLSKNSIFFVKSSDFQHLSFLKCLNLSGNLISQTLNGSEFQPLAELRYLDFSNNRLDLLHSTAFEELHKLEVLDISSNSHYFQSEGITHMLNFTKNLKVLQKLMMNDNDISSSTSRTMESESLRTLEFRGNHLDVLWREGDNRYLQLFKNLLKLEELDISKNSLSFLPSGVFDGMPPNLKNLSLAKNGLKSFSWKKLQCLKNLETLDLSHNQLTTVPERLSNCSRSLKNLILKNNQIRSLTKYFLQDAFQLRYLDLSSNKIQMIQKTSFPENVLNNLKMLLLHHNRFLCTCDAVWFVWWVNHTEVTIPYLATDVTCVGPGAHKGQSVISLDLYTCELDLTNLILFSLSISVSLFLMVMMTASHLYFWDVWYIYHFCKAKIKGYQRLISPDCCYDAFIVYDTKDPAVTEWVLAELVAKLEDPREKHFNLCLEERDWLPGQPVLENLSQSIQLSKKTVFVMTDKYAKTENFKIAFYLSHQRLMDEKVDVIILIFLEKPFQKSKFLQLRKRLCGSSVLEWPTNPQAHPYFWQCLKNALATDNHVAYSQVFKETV
The experiment in a line: Agonistic activity on human TLR7 in HEK-Blue hTLR7 cells (QUANTI-Blue). The class given is cell-based. As to conditions: 24 h incubation, OD650, read-out: hTLR 7 EC50.

A further data set deals with T2, hTLR8 (Homo sapiens, UniProt Q9NR97).
T2 construct: expressed in transfected cells; host or cells: HEK-Blue hTLR8 cells
T2 sequence (Q9NR97 27-1041): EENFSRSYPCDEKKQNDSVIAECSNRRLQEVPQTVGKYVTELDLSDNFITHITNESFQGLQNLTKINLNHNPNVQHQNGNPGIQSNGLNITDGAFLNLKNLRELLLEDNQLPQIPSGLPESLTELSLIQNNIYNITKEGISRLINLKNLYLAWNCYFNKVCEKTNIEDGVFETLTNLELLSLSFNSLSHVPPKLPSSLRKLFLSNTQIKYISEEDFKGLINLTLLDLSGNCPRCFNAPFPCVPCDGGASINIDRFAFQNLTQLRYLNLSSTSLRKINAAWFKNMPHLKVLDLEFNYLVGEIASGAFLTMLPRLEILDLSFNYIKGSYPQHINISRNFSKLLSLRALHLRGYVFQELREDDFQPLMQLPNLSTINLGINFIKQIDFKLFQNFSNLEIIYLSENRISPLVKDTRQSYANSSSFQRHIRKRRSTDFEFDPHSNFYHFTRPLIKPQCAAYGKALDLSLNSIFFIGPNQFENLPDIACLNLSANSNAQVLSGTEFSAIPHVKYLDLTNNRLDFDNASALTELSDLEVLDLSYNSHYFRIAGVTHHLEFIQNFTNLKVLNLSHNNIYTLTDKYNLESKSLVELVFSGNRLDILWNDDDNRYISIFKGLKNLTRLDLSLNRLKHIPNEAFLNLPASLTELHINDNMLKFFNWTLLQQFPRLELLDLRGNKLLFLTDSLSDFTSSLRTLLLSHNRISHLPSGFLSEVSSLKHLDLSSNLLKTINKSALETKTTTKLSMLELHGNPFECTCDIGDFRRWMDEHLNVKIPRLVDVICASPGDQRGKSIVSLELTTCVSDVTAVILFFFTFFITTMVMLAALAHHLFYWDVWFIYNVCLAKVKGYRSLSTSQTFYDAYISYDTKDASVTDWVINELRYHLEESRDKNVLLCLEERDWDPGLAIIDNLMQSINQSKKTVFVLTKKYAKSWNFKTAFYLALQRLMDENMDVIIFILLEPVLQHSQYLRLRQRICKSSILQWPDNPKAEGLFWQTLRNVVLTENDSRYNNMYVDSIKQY
Briefly: Agonistic activity on human TLR8 in HEK-Blue hTLR8 cells (QUANTI-Blue). The class given is cell-based. As to conditions: 24 h incubation, OD650, read-out: hTLR 8 EC50.

A short description of data set [1]: Cell toxicity (Celltiter-Glo) in HEK-Blue hTLR8 cells. As to conditions: human. In general terms: In ATP-based viability assays light output follows the ATP content of the culture.
Description: (§1) Purpose: HEK-Blue™ hTLR7 and HEK-Blue™ hTLR8 cells were used to detect the agonist and cytotoxic activities of compounds against hTLR7 and hTLR8.
(§2) The experimental steps were as shown below: • 1) Preparation of compound: The compound was prepared into a 20 mM stock solution with DMSO, and then the stock solution was diluted 3-fold in a gradient and added to a 96-well plate, for a total of 10 concentrations, with duplicate wells for each concentration. For negative control wells, 0.5 μL DMSO was added to each well. The final DMSO concentration was 0.5%. • 2) HEK-Blue™ hTLR7 or HEK-Blue™ hTLR8 cells were suspended in culture medium and then seeded into 96-well plates containing compounds at a cell count of 50,000 per well. The compounds and cells were incubated for 24 h at 37° C., 5% Co2. • 3) QUANTI-Blue was used for the detection solution: to a mixture of 1 mL of QB reagent and 1 mL of QB buffer was added 98 mL of sterile water, the mixture was mixed and dissolved, and then placed at room temperature for 10 min. • 4) Activity test of the compound: 20 μL of the culture supernatant in step 2) was added to each well of a 96-well plate containing 180 μL of QUANTI-Blue detection solution. After incubation at 37° C. for 1 h, the absorbance at 650 nm (OD650) was detected using a multifunctional microplate reader Flextation III. • 5) Detection of cell activity: The chemiluminescent signal (RLU) was detected using the multifunctional microplate reader Flextation III according to the instructions of Celltiter-Glo. • 6) Data analysis
Detection of cell activity: The calculation formula for cell activity % is as follows.
The cell activity % values were analyzed using GraphPad Prism software, and the compound dose-effect curves were fitted to calculate the CC50 values of the compounds.
Cell activity %=RLU compound/RLU DMSO Control*100%

Description for hTLR7: as §1, §2
Activity of compounds: OD650 values were analyzed using GraphPad Prism software, and the compound dose-effect curves were fitted to calculate the EC50 values of the compounds.

Broadly, the EC50 is the concentration giving half of the maximal effect. Broadly, the CC50 is the concentration at which the toxic effect on the cells reaches its halfway point. A high value points to lower toxicity to the cells. On to `CCCCNCc1c[nH]c(=O)cc1-c1ccc2c(N[C@@](C)(CO)CCCC)nc(N)nc2c1` [Example 58, (R)-4-(2-Amino-4-((1-hydroxy-2-methylhexan-2-yl)amino)quinazolin-7-yl)-5-((butylamino)methyl)pyridin-2(1H)-one], for which the EC50 is more than 100 µM on hTLR7 and 0.918 µM at hTLR8. In data set [1], this compound returned a CC50 at 24 h of more than 100 µM.
Take `CCCC[C@](C)(CO)Nc1nc(N)nc2cc(-c3cc(=S)[nH]cc3CN(C)CCOC)ccc12` [Example 65, (R)-4-(2-Amino-4-((1-hydroxy-2-methylhexan-2-yl)amino)quinazolin-7-yl)-5-(((2-methoxyethyl)(methyl)amino)methyl)pyridine-2(1H)-thione]: the EC50 on hTLR7 is more than 100 µM; on hTLR8, 0.212 µM. This compound returned a 50% cytotoxic concentration (CC50) at 24 h in data set [1] of more than 100 µM.
Take `C=CCCOCc1c[nH]c(=O)cc1-c1cnc2c(N[C@@](C)(CO)CCCC)nc(N)nc2c1` [Example 41, (R)-4-(2-Amino-4-((1-hydroxy-2-methylhexan-2-yl)amino)pyrido[3,2-d]pyrimidin-7-yl)-5-((but-3-en-1-yloxy)methyl)pyridin-2(1H)-one]: the results for the concentration for a half-maximal effect (EC50) on hTLR7 and on hTLR8 were 29.9 µM and 0.354 µM, respectively. In data set [1], the CC50 at 24 h is more than 100 µM.
`CCCCN(CCCC)Cc1c[nH]c(=O)cc1-c1cnc2c(N[C@@](C)(CO)CCCC)nc(N)nc2c1` [Example 14]: the results for the 50% effective concentration (EC50) on hTLR7 and on hTLR8 were more than 100 µM and 0.288 µM, respectively. This compound also registered a CC50 at 24 h in data set [1] of more than 100 µM.
For the compound `CCCC[C@](C)(CO)Nc1nc(N)nc2cc(-c3cc(=O)[nH]cc3CN3CCN(C(C)(C)C)CC3)cnc12` [Example 23], the EC50 at hTLR7 was more than 100 µM; at hTLR8, 0.291 µM. Further, the CC50 at 24 h in data set [1] was more than 100 µM.
`CCCCNCc1cn(C)c(=O)cc1-c1ccc2c(N[C@@](C)(CO)CCCC)nc(N)nc2c1` [Example 62, (R)-4-(2-Amino-4-((1-hydroxy-2-methylhexan-2-yl)amino)quinazolin-7-yl)-5-((butylamino)methyl)-1-methylpyridin-2(1H)-one]: the EC50 at hTLR7 is more than 100 µM; on hTLR8 it was 0.198 µM. In addition, the CC50 at 24 h in data set [1] was more than 100 µM.
`CCCC[C@](C)(CO)Nc1nc(N)nc2cc(-c3cc(=S)[nH]cc3CN(C)CCOC)cnc12` [Example 66, (R)-4-(2-Amino-4-((1-hydroxy-2-methylhexan-2-yl)amino)pyrido[3,2-d]pyrimidin-7-yl)-5-(((2-methoxyethyl)(methyl)amino)methyl)pyridine-2(1H)-thione]: the EC50 was more than 100 µM on hTLR7 and 0.183 µM on hTLR8. Besides, the CC50 at 24 h in data set [1] was more than 100 µM.
As to `CCCC[C@](C)(CO)Nc1nc(N)nc2cc(-c3cc(=O)[nH]cc3CN3CCSCC3)cnc12` [Example 25], the concentration for a half-maximal effect (EC50) on hTLR7 was more than 100 µM; at hTLR8, 0.13 µM. The CC50 at 24 h in data set [1] is more than 100 µM.
With `CCCC[C@](C)(CO)Nc1nc(N)nc2cc(-c3cc(=O)[nH]cc3CN3CCOCC3)cnc12` [Example 24], the EC50 at hTLR7 is more than 100 µM; on hTLR8 it was 0.239 µM. In data set [1], this compound returned a cytotoxic concentration (CC50) at 24 h of more than 100 µM.
On to `C=CCCN(C)Cc1cn(C)c(=O)cc1-c1cnc2c(N[C@@](C)(CO)CCCC)nc(N)nc2c1` [Example 7], for which the EC50 on hTLR7 is more than 100 µM; at hTLR8, 0.315 µM. Moreover, in data set [1], the half-maximal cytotoxic concentration (CC50) at 24 h was more than 100 µM.
Take `C=CCCN(CCC=C)Cc1c[nH]c(=O)cc1-c1cnc2c(N[C@@](C)(CO)CCCC)nc(N)nc2c1` [Example 13]: the EC50 at hTLR7 is 81.5 µM; at hTLR8 it was 1.73 µM. The compound further returned a CC50 at 24 h in data set [1] of 97.3 µM.
For `CCCC[C@](C)(CO)Nc1nc(N)nc2cc(-c3cc(=O)[nH]cc3CN3CCN(C)CC3)cnc12` [Example 22], in that order: more than 100 µM, 0.98 µM and more than 100 µM.
As to `CCCC[C@](C)(CO)Nc1nc(N)nc2cc(-c3cc(=O)[nH]cc3CN(C)CCNC)cnc12` [Example 20], the results for the EC50 at hTLR7 and at hTLR8 were more than 100 µM and 2.85 µM, respectively. In data set [1], this compound yielded a CC50 at 24 h of more than 100 µM.
In the case of `C=CCCN(CC)Cc1c[nH]c(=O)cc1-c1cnc2c(N[C@@](C)(CO)CCCC)nc(N)nc2c1` [Example 18], the EC50 was more than 100 µM on hTLR7 and 0.132 µM on hTLR8. The cytotoxic concentration (CC50) at 24 h in data set [1] was more than 100 µM.
Take `CCCC[C@](C)(CO)Nc1nc(N)nc2cc(-c3cc(=O)[nH]cc3CN(C)CCO)ccc12` [Example 60, (R)-4-(2-Amino-4-((1-hydroxy-2-methylhexan-2-yl)amino)quinazolin-7-yl)-5-(((2-hydroxyethyl)(methyl)amino)methyl)pyridin-2(1H)-one]: the EC50 at hTLR7 was more than 100 µM; at hTLR8 it was 0.292 µM. In data set [1], this compound had a CC50 at 24 h of more than 100 µM.
Take `C=CCCN(C)C(=O)c1c[nH]c(=O)cc1-c1cnc2c(N[C@@](C)(CO)CCCC)nc(N)nc2c1` [Example 38, (R)-4-(2-Amino-4-((1-hydroxy-2-methylhexan-2-yl)amino)pyrido[3,2-d]pyrimidin-7-yl)-N-(but-3-en-1-yl)-N-methyl-6-oxo-1,6-dihydropyridine-3-carboxamide]: the EC50 on hTLR7 is more than 100 µM; on hTLR8, 2.99 µM. For the same compound, the CC50 at 24 h in data set [1] is more than 100 µM.
`CCCC[C@](C)(CO)Nc1nc(N)nc2cc(-c3cc(=O)n(C)cc3CNCCOC)ccc12` [Example 61, (R)-4-(2-Amino-4-((1-hydroxy-2-methylhexan-2-yl)amino)quinazolin-7-yl)-5-(((2-methoxyethyl)amino)methyl)-1-methylpyridin-2(1H)-one]: the values for the EC50 at hTLR7 and on hTLR8 were more than 100 µM and 0.418 µM, respectively. The same compound had a CC50 at 24 h in data set [1] of more than 100 µM.
For the compound `C=CCC(=O)N(C)Cc1c[nH]c(=O)cc1-c1cnc2c(N[C@@](C)(CO)CCCC)nc(N)nc2c1` [Example 40, (R)—N-((4-(2-Amino-4-((1-hydroxy-2-methylhexan-2-yl)amino)pyrido[3,2-d]pyrimidin-7-yl)-6-oxo-1,6-dihydropyridin-3-yl)methyl)-N-methylbut-3-enamide], the figures for the EC50 on hTLR7 and at hTLR8 were more than 100 µM and 1.52 µM, respectively. In addition, in data set [1], the CC50 at 24 h is more than 100 µM.
Take `C=CCCN(C)Cc1c[nH]c(=O)cc1-c1cnc2c(N[C@](C)(CCCC)CNC(=O)c3cnn(C)c3)nc(N)nc2c1` [Example 44, (R)—N-(2-((2-Amino-7-(5-((but-3-en-1-yl(methyl)amino)methyl)-2-oxo-1,2-dihydropyridin-4-yl)pyrido[3,2-d]pyrimidin-4-yl)amino)-2-methylhexyl)-1-methyl-1H-pyrazole-4-carboxamide]: the EC50 on hTLR7 was more than 100 µM; at hTLR8 it was 0.166 µM. Besides, in data set [1], the CC50 at 24 h was more than 100 µM.
Regarding `CCCC[C@](C)(CO)Nc1nc(N)nc2cc(-c3cc(=O)[nH]cc3CN3CCCCC3)ccc12` [Example 17], the EC50 is more than 100 µM on hTLR7 and 0.22 µM on hTLR8. Further, in data set [1], the CC50 at 24 h was more than 100 µM.
